Results as given in a melting point compilation (Tetko et al.).

Conditions: a range is the spread between reports

SMILES	melting point [°C]
Nc1c(Br)cc(Br)cc1Br	120 to 122
NCC(O)c1ccccc1 (stereo unspecified)	56.5 to 57
CCCCS(=O)(=O)CCCC	44 to 45
CCc1ccccn1	-63.1 to -63
O=P(O)(O)c1ccccc1	161 to 164
NC(=O)C(Cl)Cl	99 to 99.4
O=C1CCC(=O)N1	124 to 126
c1ccc2c(c1)Sc1ccccc1S2	159
CCc1ccccc1N	-47 to -44
CC(C)CCCC(C)C	-103
CC(C)(C)C(C)(C)C	101
Clc1cccc(Br)c1Cl	58 to 60
O=Cc1cc(O)ccc1O	98 to 99
CCCCCSCCCCC	-51.3 to -51
Cc1ccc(N=C=S)cc1	25 to 25.5
Clc1ccc(Br)c(Cl)c1	26 to 27
COc1ccccc1N	5 to 6.2
Oc1ccc(Cl)cc1Cl	42 to 45
CC(C)CC1CCCC1	-115
CCCCCCCCCCCCCC(=O)O	53.9 to 55.1
COC(=O)c1cccc(C(=O)OC)c1	67.5 to 69
OCCCl	-67.5 to -63
O=Cc1ccco1	-38.1 to -36
c1c[nH]nn1	23 to 24
Cc1cc(Cl)ccc1O	47 to 51
CN(C)c1cccc([N+](=O)[O-])c1	59 to 60.5
O=C(Cl)c1ccc(Cl)cc1Cl	16.5 to 18
O=C(Cl)c1ccc(C(=O)Cl)cc1	81 to 83.5
O=C(O)CCCCBr	39 to 40

Second part, the molecule after the results:

melting point [°C]	SMILES
-57 to -55.5	CCCCC(C)=O
33 to 36.5	CCC/C=C/C(=O)O
131 to 132	O=C(C=CC=Cc1ccc2c(c1)OCO2)N1CCCCC1
-67.1 to -67	CC(=O)CCC=C(C)C
76 to 81	O=S(=O)(Cl)c1ccc2ccccc2c1
101 to 104	CC(C)(CC(=O)O)CC(=O)O
20.5 to 24	C=CCn1c(=O)n(CC=C)c(=O)n(CC=C)c1=O
-21 to -16	CCCCCCC(C)=O
-31.2 to -31	CCc1ccccc1CC
23 to 26	Cc1ccc(Cl)cc1N
205 to 208	COc1cc(C(=O)O)cc(OC)c1O
-24 to -23	CN1CCCC1=O
196 to 201	Oc1c(Br)cc(Br)c2cccnc12
110 to 114	COC(=O)c1ccc(N)cc1
-5 to -2.5	O=C(Cl)CCCCCCCCC(=O)Cl
282 to 287	N[C@@H](Cc1c[nH]cn1)C(=O)O
83 to 86	O=Cc1cc(Br)cc(Br)c1O
83 to 86	O=C(O)Cc1ccc(F)cc1
-135 to -134	CCC(C)(C)CC
184 to 185	NC(=O)c1ccc(C(F)(F)F)cc1
-23 to -19	CCCCCCN

melting point [°C]	SMILES
-132	C=C(CC)CC
-131 to -127	FC(C(F)(F)F)C(F)(F)F
-63 to -62.6	Cc1ccc(C)s1
77.5 to 78	CCCCCCCCCCCCCC(=O)CCCCCCCCCCCCC
-139	CCCl
61 to 66	Clc1cccc(Cl)c1Br
178 to 183	CC1=C(/C=C/C(C)=C/C=C/C(C)=C/C=C/C=C(C)/C=C/C=C(C)/C=C/C2=C(C)CCCC2(C)C)C(C)(C)CCC1
79 to 83	O=Cc1c(O)ccc2ccccc12
53 to 56.5	O=C(Cl)C(c1ccccc1)c1ccccc1
-23 to -22	CCOC(=O)CC#N
12 to 14	Cc1nc2ccccc2s1
95 to 97	CCCCNC(N)=O
-61 to -60.4	CN(C)C=O
226 to 228	O=C(O)c1cc(Br)cc(Br)c1O
39 to 40	COc1cccc(OC)c1C
99 to 101	CC(=O)c1ccc2ccccc2c1O
-138 to -137	CCCC
128 to 129	Nc1cccc2cnccc12
25 to 26	COc1ccc(Br)c(OC)c1
115 to 116	CCCC(N)=O
127 to 129	O=C(O)c1ccccc1C(=O)c1ccccc1
